From patent EP4745153A1, “GLP-1, GIP AND GCG RECEPTOR […] USE THEREOF” (Jiangsu Hengrui Pharmaceuticals Co., Ltd., priority 2023, dated 2025)
Read-outs that look alike come from different tables or passages of the source. Starred links: 1 amine or outer side, 2 acyl side, 3 side chain; linkers in the order of their positions; H or OH if unused. Non-standard residues stand in square brackets, D forms with d. Residues, ends and D or L forms follow the SMILES beside them. Groups on a side chain read outwards from the residue. No end group written: not given here. *: point of attachment. C20 diacid = O=C(O)CCCCCCCCCCCCCCCCCCC(=O)*; γGlu = O=C(O)[C@H](CCC(=O)[*:2])N[*:1]; αMeL = CC(C)C[C@](C)(N)C(=O)O; αMeK = C[C@](N)(CCCCN)C(=O)O; αMeS = C[C@](N)(CO)C(=O)O; AEEA = NCCOCCOCC(=O)O; αS = not defined here; Aib = CC(C)(N)C(=O)O

Key:
[1] = In vivo efficacy in diet-induced obesity (DIO) mouse model; set-up: species or system C57BL/6J mice; details: 10 nmol/kg subcutaneous once daily for 24 days, indicating good safety
Source text: In this example, a DIO mouse model established by high-fat diet induction was used to evaluate the effects on and improvement of obesity and diabetes-related indicators in DIO mice after subcutaneous injection of some of the compounds in the present disclosure.
4.1 Experimental methods: Obese male C57BL/6J mice (23-24 weeks old, obtained from Beijing Vital River Laboratory Animal Technology Co., Ltd.) induced by a high-fat diet were purchased. Six-week-old male C57BL/6J mice were fed a 60% high-fat diet (RD D12492) until their body weight reached 45-50g to obtain DIO model mice. After arriving at the facility and undergoing a week of acclimatization feeding, the animals were randomly divided into groups according to their body weight and administered vehicle (model group), LY3437943, Compound 15, Compound 16, Compound 17 and Compound 18 via subcutaneous injection in the neck. The compound was administered at a dose of 10 nmol/kg, and the frequency of administration was once daily via subcutaneous injection for 24 days. Each group contained 5 DIO mice. According to the experimental design, the body weight of each mouse was weighed and recorded daily at 3 pm or before administration, the average body weight of each group of mice was calculated, and a curve of body weight change over time was plotted. After the experiment, the fat and other organs of the mice were removed from various parts of the body, weighed, and recorded.

human GLP-1R = target: T1, human GLP-1R (Homo sapiens, UniProt P43220); assay: cAMP HTRF agonist activity assay in CHO-K1 cells expressing GLP-1R; format: cell-based
T1 construct: expressed in transfected cells; host or cells: CHO-K1 clonal cell line
How it was run: (§1)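 cAMP accumulation measured by competitive HTRF after 30 min incubation of polypeptides with 5000 receptor-expressing CHO-K1 cells/well at 37°C. Percent of maximal response versus concentration fitted to a four-parameter logistic to give relative EC50.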

human GIPR = target: T2, human GIPR (Homo sapiens, UniProt P48546); assay: cAMP HTRF agonist activity assay in CHO-K1 cells expressing GIPR; format: cell-based
T2 construct: expressed in transfected cells; host or cells: CHO-K1 clonal cell line
T2 sequence (P48546 22-466): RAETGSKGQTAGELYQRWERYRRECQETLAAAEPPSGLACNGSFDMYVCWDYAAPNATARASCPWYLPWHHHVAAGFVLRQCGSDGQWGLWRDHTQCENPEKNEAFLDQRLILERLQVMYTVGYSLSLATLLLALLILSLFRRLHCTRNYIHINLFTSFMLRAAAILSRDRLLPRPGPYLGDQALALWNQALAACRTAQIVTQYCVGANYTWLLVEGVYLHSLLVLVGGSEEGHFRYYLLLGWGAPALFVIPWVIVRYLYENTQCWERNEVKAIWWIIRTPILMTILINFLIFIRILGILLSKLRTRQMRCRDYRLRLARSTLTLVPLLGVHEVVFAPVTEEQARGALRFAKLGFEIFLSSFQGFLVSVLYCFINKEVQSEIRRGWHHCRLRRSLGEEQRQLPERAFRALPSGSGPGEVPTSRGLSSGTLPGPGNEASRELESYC
How it was run: as §1

[2] = Solubility in the vehicle; format: physicochemical; details: stated in the summary only, no test example
[3] = Pharmacokinetics in mice after single intravenous injection; set-up: species or system C57 mice; details: mouse, in vivo, male C57 mice, single intravenous dose 200 nmol/kg, plasma; for clearance: read-out: CLp; for half-life: read-out: T1/2 (converted)
How it was run: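 Plasma concentrations were measured by positive-mode ESI LC-MS/MRM, with verapamil as internal standard, at time points from 5 min to 72 h. Samples came from three male C57 mice per compound, aged 4-6 weeks, dosed once intravenously with 200 nmol/kg in 1×PBS; PK parameters were derived with PKSolver.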

[4] = Physical stability of solution in the vehicle; format: physicochemical; details: incubation at 25 degrees Celsius for 28 days; stated in the description, no method given
human glucagon receptor [5] = target: T3, human glucagon receptor (human, UniProt P47871 26-477); assay: cell-based or functional assay
[6] = target: T4, human glucose-dependent insulinotropic polypeptide receptor (human, UniProt P48546 22-466); assay: cell-based or functional assay
T4 sequence (looked up): T2 sequence (P48546 22-466)

human glucagon receptor [7] = target: T3, human glucagon receptor; assay: cell-based or functional assay; remark: listed apart in the source
[8] = target: T4, human glucose-dependent insulinotropic …; assay: cell-based or functional assay; remark: listed apart in the source
[9] = target: human glucagon-like peptide-1 receptor (human, UniProt P43220 24-463); assay: cell-based or functional assay

T3 sequence (P47871 26-477): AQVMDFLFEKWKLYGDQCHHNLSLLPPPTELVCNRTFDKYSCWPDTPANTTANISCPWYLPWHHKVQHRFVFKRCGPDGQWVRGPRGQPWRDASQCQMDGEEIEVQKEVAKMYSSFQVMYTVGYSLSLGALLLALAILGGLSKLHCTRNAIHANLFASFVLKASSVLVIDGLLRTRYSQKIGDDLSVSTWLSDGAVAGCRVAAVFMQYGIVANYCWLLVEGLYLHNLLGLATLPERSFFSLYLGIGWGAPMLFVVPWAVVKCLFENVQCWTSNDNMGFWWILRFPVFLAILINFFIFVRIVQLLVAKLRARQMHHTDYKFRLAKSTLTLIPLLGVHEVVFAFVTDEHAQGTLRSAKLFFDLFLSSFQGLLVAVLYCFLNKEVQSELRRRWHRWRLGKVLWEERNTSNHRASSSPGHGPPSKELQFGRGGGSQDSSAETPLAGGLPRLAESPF
T1 sequence (P43220 24-463): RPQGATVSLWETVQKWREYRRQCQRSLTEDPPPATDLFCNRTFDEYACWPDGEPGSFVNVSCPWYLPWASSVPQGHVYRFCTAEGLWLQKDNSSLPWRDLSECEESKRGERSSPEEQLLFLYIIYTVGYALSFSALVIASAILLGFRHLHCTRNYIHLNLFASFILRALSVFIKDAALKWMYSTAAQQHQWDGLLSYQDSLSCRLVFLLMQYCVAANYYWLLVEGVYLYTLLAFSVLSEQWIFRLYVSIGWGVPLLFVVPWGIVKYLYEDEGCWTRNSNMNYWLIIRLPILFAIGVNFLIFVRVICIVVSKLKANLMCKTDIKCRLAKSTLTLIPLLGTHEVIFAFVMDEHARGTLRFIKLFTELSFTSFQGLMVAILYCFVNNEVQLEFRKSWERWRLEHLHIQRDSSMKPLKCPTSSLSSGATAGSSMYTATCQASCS

## CC[C@H](C)[C@H](NC(=O)[C@H](CO)NC(=O)[C@H](Cc1ccc(O)cc1)NC(=O)[C@H](CC(=O)O)NC(=O)[C@H](CO)NC(=O)[C@@H](NC(=O)[C@H](Cc1ccccc1)NC(=O)[C@@H](NC(=O)CNC(=O)[C@H](Cc1c[nH]cn1)NC(=O)C(C)(C)NC(=O)[C@@H](N)Cc1c[nH]cn1)[C@@H](C)O)[C@@H](C)O)C(=O)N[C@@](C)(CC(C)C)C(=O)N[C@@H](CC(C)C)C(=O)N[C@@H](CCC(=O)O)C(=O)N[C@@H](CCCCNC(=O)COCCOCCNC(=O)COCCOCCNC(=O)CC[C@H](NC(=O)CCCCCCCCCCCCCCCCCCC(=O)O)C(=O)O)C(=O)N[C@@H](CCCCN)C(=O)N[C@@H](C)C(=O)N[C@@H](C)C(=O)N[C@@H](CCC(N)=O)C(=O)N[C@@H](CCC(=O)O)C(=O)N[C@@H](Cc1ccccc1)C(=O)N[C@H](C(=O)N[C@@H](CCC(=O)O)C(=O)N[C@@H](Cc1c[nH]c2ccccc12)C(=O)N[C@@H](CC(C)C)C(=O)N[C@@H](CC(C)C)C(=O)N[C@@H](C)C(=O)NCC(=O)NCC(=O)N1CCC[C@H]1C(=O)N[C@@H](CO)C(=O)N[C@@H](CO)C(=O)NCC(=O)N[C@@H](C)C(=O)N1CCC[C@H]1C(=O)N1CCC[C@H]1C(=O)N1CCC[C@H]1C(=O)N[C@@H](CO)C(N)=O)C(C)C [Compound 0125] (H-H[Aib]HGTFTSDYSI[αMeL]LEK([AEEA-AEEA-γGlu-C20 diacid])KAAQEFVEWLLAGGPSSGAPPPS-NH2)
[1]
  final body weight relative to body weight of mice on a normal diet (Chow): ≥ 80%
Human GLP-1R
  EC50: 32 pM
Human GIPR
  EC50: 2 pM
[2]
  solubility in the vehicle: ≥ 20 mg/mL
[3]
  AUC(0-inf): 96.1 µM·h
  C0: 5.79 µM
  clearance: 2.1 mL/h/kg
  half-life: 14.6 h

## H-Aib-HGTFTSDYS-αK-LLE-K(-OEG-OEG-γGlu-C(O)-(CH2)18-COOH)-KAA-αS-EFVEWLIEGGPSSGAPPPS-NH2 (H[Aib]HGTFTSDYS[αMeK]LLEK([AEEA-AEEA-γGlu-C20 diacid])KAA[αS]EFVEWLIEGGPSSGAPPPS-NH2; reading uncertain; also: printed as H-Aib-HGTFTSDYS-αK-LLE-K(-OEG-OEG-γGlu-C(O)-(CH2)18-COOH)-KAA-αS-EFVEWLIEGGPSSGAPPPS-NH2) [Compound 0126]
[4]
  appearance of the solution in the vehicle: remains clear and transparent

## CC[C@H](C)[C@H](NC(=O)[C@H](CC(C)C)NC(=O)[C@H](Cc1c[nH]c2ccccc12)NC(=O)[C@H](CCC(=O)O)NC(=O)[C@@H](NC(=O)[C@H](Cc1ccccc1)NC(=O)[C@H](CCC(=O)O)NC(=O)[C@](C)(CO)NC(=O)[C@H](C)NC(=O)[C@H](C)NC(=O)[C@H](CCCCN)NC(=O)[C@H](CCCCNC(=O)COCCOCCNC(=O)COCCOCCNC(=O)CC[C@H](NC(=O)CCCCCCCCCCCCCCCCCCC(=O)O)C(=O)O)NC(=O)[C@H](CCC(=O)O)NC(=O)[C@H](CC(C)C)NC(=O)[C@H](CC(C)C)NC(=O)[C@](C)(CCCCN)NC(=O)[C@H](CO)NC(=O)[C@H](Cc1ccc(O)cc1)NC(=O)[C@H](CC(=O)O)NC(=O)[C@H](CO)NC(=O)[C@@H](NC(=O)[C@H](Cc1ccccc1)NC(=O)[C@@H](NC(=O)CNC(=O)[C@H](Cc1c[nH]cn1)NC(=O)C(C)(C)NC(=O)[C@@H](N)Cc1c[nH]cn1)[C@@H](C)O)[C@@H](C)O)C(C)C)C(=O)N[C@@H](CCC(=O)O)C(=O)NCC(=O)NCC(=O)N1CCC[C@H]1C(=O)N[C@@H](CO)C(=O)N[C@@H](CO)C(=O)NCC(=O)N[C@@H](C)C(=O)N1CCC[C@H]1C(=O)N1CCC[C@H]1C(=O)N1CCC[C@H]1C(=O)N[C@@H](CO)C(N)=O [Compound 0126] (H-H[Aib]HGTFTSDYS[αMeK]LLEK([AEEA-AEEA-γGlu-C20 diacid])KAA[αMeS]EFVEWLIEGGPSSGAPPPS-NH2)
Human GIPR
  EC50: 2 pM
[2]
  solubility in the vehicle: ≥ 20 mg/mL
[3]
  AUC(0-inf): 103 µM·h
  C0: 7.17 µM
  clearance: 1.98 mL/h/kg
  half-life: 10.1 h

B1: Compound No. 0125 (peptide)
peptide: H[Aib]HGTFTSDYSI[αMeL]LEK([AEEA-AEEA-γGlu-C20 diacid])KAAQEFVEWLLAGGPSSGAPPPS-NH2
modifications: N-terminus assumed
SMILES: CC[C@H](C)[C@H](NC(=O)[C@H](CO)NC(=O)[C@H](Cc1ccc(O)cc1)NC(=O)[C@H](CC(=O)O)NC(=O)[C@H](CO)NC(=O)[C@@H](NC(=O)[C@H](Cc1ccccc1)NC(=O)[C@@H](NC(=O)CNC(=O)[C@H](Cc1c[nH]cn1)NC(=O)C(C)(C)NC(=O)[C@@H](N)Cc1c[nH]cn1)[C@@H](C)O)[C@@H](C)O)C(=O)N[C@@](C)(CC(C)C)C(=O)N[C@@H](CC(C)C)C(=O)N[C@@H](CCC(=O)O)C(=O)N[C@@H](CCCCNC(=O)COCCOCCNC(=O)COCCOCCNC(=O)CC[C@H](NC(=O)CCCCCCCCCCCCCCCCCCC(=O)O)C(=O)O)C(=O)N[C@@H](CCCCN)C(=O)N[C@@H](C)C(=O)N[C@@H](C)C(=O)N[C@@H](CCC(N)=O)C(=O)N[C@@H](CCC(=O)O)C(=O)N[C@@H](Cc1ccccc1)C(=O)N[C@H](C(=O)N[C@@H](CCC(=O)O)C(=O)N[C@@H](Cc1c[nH]c2ccccc12)C(=O)N[C@@H](CC(C)C)C(=O)N[C@@H](CC(C)C)C(=O)N[C@@H](C)C(=O)NCC(=O)NCC(=O)N1CCC[C@H]1C(=O)N[C@@H](CO)C(=O)N[C@@H](CO)C(=O)NCC(=O)N[C@@H](C)C(=O)N1CCC[C@H]1C(=O)N1CCC[C@H]1C(=O)N1CCC[C@H]1C(=O)N[C@@H](CO)C(N)=O)C(C)C
Human glucagon receptor [5]
  Activity against human GCGR (EC50 nM): 0.071 nM
[6]
  Activity against human GIPR (EC50 nM): 0.002 nM

B2: Compound No. 0120 (peptide)
peptide: H[Aib]HGTFTSDYSILLEK([AEEA-AEEA-γGlu-C20 diacid])KAAQEFVEWLLAGGPSSGAPPPS-NH2
modifications: N-terminus assumed
SMILES: CC[C@H](C)[C@H](NC(=O)[C@H](CO)NC(=O)[C@H](Cc1ccc(O)cc1)NC(=O)[C@H](CC(=O)O)NC(=O)[C@H](CO)NC(=O)[C@@H](NC(=O)[C@H](Cc1ccccc1)NC(=O)[C@@H](NC(=O)CNC(=O)[C@H](Cc1c[nH]cn1)NC(=O)C(C)(C)NC(=O)[C@@H](N)Cc1c[nH]cn1)[C@@H](C)O)[C@@H](C)O)C(=O)N[C@@H](CC(C)C)C(=O)N[C@@H](CC(C)C)C(=O)N[C@@H](CCC(=O)O)C(=O)N[C@@H](CCCCNC(=O)COCCOCCNC(=O)COCCOCCNC(=O)CC[C@H](NC(=O)CCCCCCCCCCCCCCCCCCC(=O)O)C(=O)O)C(=O)N[C@@H](CCCCN)C(=O)N[C@@H](C)C(=O)N[C@@H](C)C(=O)N[C@@H](CCC(N)=O)C(=O)N[C@@H](CCC(=O)O)C(=O)N[C@@H](Cc1ccccc1)C(=O)N[C@H](C(=O)N[C@@H](CCC(=O)O)C(=O)N[C@@H](Cc1c[nH]c2ccccc12)C(=O)N[C@@H](CC(C)C)C(=O)N[C@@H](CC(C)C)C(=O)N[C@@H](C)C(=O)NCC(=O)NCC(=O)N1CCC[C@H]1C(=O)N[C@@H](CO)C(=O)N[C@@H](CO)C(=O)NCC(=O)N[C@@H](C)C(=O)N1CCC[C@H]1C(=O)N1CCC[C@H]1C(=O)N1CCC[C@H]1C(=O)N[C@@H](CO)C(N)=O)C(C)C
Human glucagon receptor [7]
  Activity against human GCGR (EC50 nM): 0.121 nM
[8]
  Activity against human GIPR (EC50 nM): 0.002 nM
[9]
  Activity against human GLP-1R (EC50 nM): 0.026 nM
